Measured values taken from patent publication US20220281848A1, “PYRAZOLE-SUBSTITUTED PYRROLIDINONES AS HERBICIDES” (FMC Corporation, priority 2019, published 2022).

Legend:
Assay type in all cases: in vivo
Conditions in all cases: after 13 d
[1] = tested on: redroot pigweed (Amaranthus retroflexus, AMARE); assay: Test A post-emergence, redroot pigweed
Experimental: (§1) Seeds of corn (Zea mays, ZEAMX), giant foxtail (Setaria faberi, SETFA), barnyardgrass (Echinochloa crus-galli, ECHCG), ivy-leaved morning glory (Ipomoea hederacea, IPOHE)), redroot pigweed (Amaranthus retroflexus, AMARE) and velvetleaf (Abutilon theophrasti, ABUTH) were sown in standard soil in pots. After cultivation for 8 d under controlled conditions in a glasshouse (at 24/16° C., day/night; 14 h light; 65% humidity), the plants were sprayed with an aqueous spray solution derived from the formulation of the technical active ingredient in acetone/water (50:50) solution containing 0.5% Tween 20 (polyoxyethylene sorbitan monolaurate, CAS RN 9005-64-5) to give a final dose of 15.625, 62.5 or 250 g/ha of test compound.
(§2) The test plants were then grown on under controlled conditions in a glasshouse (at 24/16° C., day/night; 14 h light; 65% humidity) and watered twice daily. After 13 d the test was evaluated (100=total damage to plant; 0=no damage to plant).

[2] = tested on: velvetleaf (Abutilon theophrasti, ABUTH); assay: Test A post-emergence, velvetleaf
Experimental: as §1, §2

[3] = tested on: ivy-leaved morning glory (Ipomoea hederacea, IPOHE); assay: Test A pre-emergence, ivy-leaved morning glory
Experimental: as §1, with “IPOHE),” for “IPOHE)),”, “one day” for “8 d”
(§3) The test plants were then grown under controlled conditions in a glasshouse (at 24/16° C., day/night; 14 h light; 65% humidity) and watered twice daily. After 13 d the test was evaluated (100=total damage to plant; 0=no damage to plant).

[4] = tested on: redroot pigweed (Amaranthus retroflexus, AMARE); assay: Test A pre-emergence, redroot pigweed
Experimental: as §1, with “IPOHE),” for “IPOHE)),”, “one day” for “8 d”
as §3

[5] = tested on: corn (Zea mays, ZEAMX); assay: Test A post-emergence, corn
Experimental: as §1, §2

[6] = tested on: barnyardgrass (Echinochloa crus-galli, ECHCG); assay: Test A pre-emergence, barnyardgrass
Experimental: as §1, with “IPOHE),” for “IPOHE)),”, “one day” for “8 d”
as §3

[7] = tested on: ivy-leaved morning glory (Ipomoea hederacea, IPOHE); assay: Test A post-emergence, ivy-leaved morning glory
Experimental: as §1, §2

[8] = tested on: corn (Zea mays, ZEAMX); assay: Test A pre-emergence, corn
Experimental: as §1, with “IPOHE),” for “IPOHE)),”, “one day” for “8 d”
as §3

[9] = tested on: barnyardgrass (Echinochloa crus-galli, ECHCG); assay: Test A post-emergence, barnyardgrass
Experimental: as §1, §2

[10] = tested on: giant foxtail (Setaria faberi, SETFA); assay: Test A post-emergence, giant foxtail
Experimental: as §1, §2

[11] = tested on: giant foxtail (Setaria faberi, SETFA); assay: Test A pre-emergence, giant foxtail
Experimental: as §1, with “IPOHE),” for “IPOHE)),”, “one day” for “8 d”
as §3

[12] = tested on: velvetleaf (Abutilon theophrasti, ABUTH); assay: Test A pre-emergence, velvetleaf
Experimental: as §1, with “IPOHE),” for “IPOHE)),”, “one day” for “8 d”
as §3

| Compound | damage to plant (100=total damage; 0=no damage) AMARE ([1]; Post-Emergence at 15.625 g/ha) | damage to plant (100=total damage; 0=no damage) AMARE ([1]; Post-Emergence at 62.5 g/ha) | damage to plant (100=total damage; 0=no damage) AMARE ([1]; Post-Emergence at 250 g/ha) | damage to plant (100=total damage; 0=no damage) ABUTH ([2]; Post-Emergence at 15.625 g/ha) | damage to plant (100=total damage; 0=no damage) ABUTH ([2]; Post-Emergence at 62.5 g/ha) | damage to plant (100=total damage; 0=no damage) ABUTH ([2]; Post-Emergence at 250 g/ha) | damage to plant (100=total damage; 0=no damage) IPOHE ([3]; Pre-Emergence at 15.625 g/ha) | damage to plant (100=total damage; 0=no damage) IPOHE ([3]; Pre-Emergence at 62.5 g/ha) | damage to plant (100=total damage; 0=no damage) IPOHE ([3]; Pre-Emergence at 250 g/ha) | damage to plant (100=total damage; 0=no damage) AMARE ([4]; Pre-Emergence at 15.625 g/ha) | damage to plant (100=total damage; 0=no damage) AMARE ([4]; Pre-Emergence at 62.5 g/ha) | damage to plant (100=total damage; 0=no damage) AMARE ([4]; Pre-Emergence at 250 g/ha) | damage to plant (100=total damage; 0=no damage) ZEAMX ([5]; Post-Emergence at 15.625 g/ha) | damage to plant (100=total damage; 0=no damage) ZEAMX ([5]; Post-Emergence at 62.5 g/ha) | damage to plant (100=total damage; 0=no damage) ZEAMX ([5]; Post-Emergence at 250 g/ha) | damage to plant (100=total damage; 0=no damage) ECHCG ([6]; Pre-Emergence at 15.625 g/ha) | damage to plant (100=total damage; 0=no damage) ECHCG ([6]; Pre-Emergence at 62.5 g/ha) | damage to plant (100=total damage; 0=no damage) ECHCG ([6]; Pre-Emergence at 250 g/ha) | damage to plant (100=total damage; 0=no damage) IPOHE ([7]; Post-Emergence at 15.625 g/ha) | damage to plant (100=total damage; 0=no damage) IPOHE ([7]; Post-Emergence at 62.5 g/ha) | other results |
| --- | --- | --- | --- | --- | --- | --- | --- | --- | --- | --- | --- | --- | --- | --- | --- | --- | --- | --- | --- | --- | --- |
| CN1CC(c2cc(C(F)(F)F)n(C)n2)C(C(=O)Nc2cccc(F)c2F)C1=O (stereo not drawn) [Compound 12] | 0 | 0 | 0 | 0 | 0 | 0 | 0 | 0 | 20 | 0 | 0 | 10 | 0 | 0 | 0 | 0 | 0 | 10 | 0 | 0 | damage to plant (100=total damage; 0=no damage) IPOHE ([7]; Post-Emergence at 250 g/ha): 0; damage to plant (100=total damage; 0=no damage) ZEAMX ([8]; Pre-Emergence at 15.625 g/ha): 0; damage to plant (100=total damage; 0=no damage) ZEAMX ([8]; Pre-Emergence at 62.5 g/ha): 0; damage to plant (100=total damage; 0=no damage) ZEAMX ([8]; Pre-Emergence at 250 g/ha): 20; damage to plant (100=total damage; 0=no damage) ECHCG ([9]; Post-Emergence at 15.625 g/ha): 0; damage to plant (100=total damage; 0=no damage) ECHCG ([9]; Post-Emergence at 62.5 g/ha): 0; damage to plant (100=total damage; 0=no damage) ECHCG ([9]; Post-Emergence at 250 g/ha): 0; damage to plant (100=total damage; 0=no damage) SETFA ([10]; Post-Emergence at 15.625 g/ha): 0; damage to plant (100=total damage; 0=no damage) SETFA ([10]; Post-Emergence at 62.5 g/ha): 0; damage to plant (100=total damage; 0=no damage) SETFA ([10]; Post-Emergence at 250 g/ha): 0; damage to plant (100=total damage; 0=no damage) SETFA ([11]; Pre-Emergence at 15.625 g/ha): 0; damage to plant (100=total damage; 0=no damage) SETFA ([11]; Pre-Emergence at 62.5 g/ha): 0; damage to plant (100=total damage; 0=no damage) SETFA ([11]; Pre-Emergence at 250 g/ha): 0; damage to plant (100=total damage; 0=no damage) ABUTH ([12]; Pre-Emergence at 15.625 g/ha): 0; damage to plant (100=total damage; 0=no damage) ABUTH ([12]; Pre-Emergence at 62.5 g/ha): 0; damage to plant (100=total damage; 0=no damage) ABUTH ([12]; Pre-Emergence at 250 g/ha): 0 |
| CN1CC(c2nn(C)c(Cl)c2Br)C(C(=O)Nc2cccc(F)c2F)C1=O (racemic) [Compound 28] | 30 | 40 | 50 | 0 | 0 | 0 | 0 | 0 | 0 | 0 | 0 | 0 | 0 | 0 | 0 | 30 | 70 | 90 | 0 | 0 | damage to plant (100=total damage; 0=no damage) IPOHE ([7]; Post-Emergence at 250 g/ha): 0; damage to plant (100=total damage; 0=no damage) ZEAMX ([8]; Pre-Emergence at 15.625 g/ha): 0; damage to plant (100=total damage; 0=no damage) ZEAMX ([8]; Pre-Emergence at 62.5 g/ha): 0; damage to plant (100=total damage; 0=no damage) ZEAMX ([8]; Pre-Emergence at 250 g/ha): 0; damage to plant (100=total damage; 0=no damage) ECHCG ([9]; Post-Emergence at 15.625 g/ha): 30; damage to plant (100=total damage; 0=no damage) ECHCG ([9]; Post-Emergence at 62.5 g/ha): 50; damage to plant (100=total damage; 0=no damage) ECHCG ([9]; Post-Emergence at 250 g/ha): 70; damage to plant (100=total damage; 0=no damage) SETFA ([10]; Post-Emergence at 15.625 g/ha): 10; damage to plant (100=total damage; 0=no damage) SETFA ([10]; Post-Emergence at 62.5 g/ha): 30; damage to plant (100=total damage; 0=no damage) SETFA ([10]; Post-Emergence at 250 g/ha): 70; damage to plant (100=total damage; 0=no damage) SETFA ([11]; Pre-Emergence at 15.625 g/ha): 20; damage to plant (100=total damage; 0=no damage) SETFA ([11]; Pre-Emergence at 62.5 g/ha): 80; damage to plant (100=total damage; 0=no damage) SETFA ([11]; Pre-Emergence at 250 g/ha): 90; damage to plant (100=total damage; 0=no damage) ABUTH ([12]; Pre-Emergence at 15.625 g/ha): 0; damage to plant (100=total damage; 0=no damage) ABUTH ([12]; Pre-Emergence at 62.5 g/ha): 0; damage to plant (100=total damage; 0=no damage) ABUTH ([12]; Pre-Emergence at 250 g/ha): 0 |
